Entries after “also recorded” stand apart in the source; their conditions may differ.
How the values were obtained:
Assay type in all cases: in vivo
[1] = test system: venom of Protobothrops mucrosquamatus; test: Efficacy against death caused by hemotoxic venom in ICR mice (flavonoid pre-mixed with venom, intradermal injection); conditions: venom 2.5 × LD50 per mouse, flavonoid 50 nmole per mouse
Description: The ICR mice were randomly divided into four groups, which included a pathological control group, two experimental groups (i.e., experimental groups 1 and 2), and one comparative group (n=7 mice in each group). Next, a respective one of the isorhamnetin, the quercetin, and the apigenin was mixed with a venom of Protobothrops mucrosquamatus in a volume ratio of 1:20, followed by incubation at 37° C. for 30 minutes, thereby forming a respective mixture solution. Afterward, the respective ICR mouse of each of the experimental groups 1 and 2 and the comparative group was intradermally injected with a suitable amount of the mixture solution as shown in Table 2 below. In addition, the respective ICR mouse in the pathological control group was intradermally injected with the venom of Protobothrops mucrosquamatus.
Subsequently, the survival number of the ICR mice in each group was observed and recorded at every hour until 10 hours after injection with the treating agent. The viability percentage (%) of the ICR mice in each group was calculated using the following Equation (1):
where A=viability percentage (%)
B=survival number of the ICR mice at every hour until 10 hours after injection with treating agent

[2] = test system: snake venom protein mixture (cardiotoxins and high molecular weight proteins from the venom of Naja atra); test: Cutaneous ulceration caused by snake venom proteins in ICR mice, intradermal injection; conditions: for area of cutaneous ulcers compared to pathological control group (in words): 24th hour after injection, 50 nmole per mouse pre-mixed with 0.1 mL snake venom protein mixture, intradermal; for median effective dose (ED50) for reducing an area of a cutaneous ulcer: administered via intradermal injection
Source text: (§1) For further study of the efficacy of isorhamnetin and quercetin in alleviating cutaneous ulceration caused by snake venom proteins, the applicants conducted experiments using a snake venom protein mixture containing snake venom proteins having a molecular weight of not lower than 43 kD and a cardiotoxin that might cause tissue necrosis, so as to avoid sudden death of the ICR mice due to other toxins that might have interfered with the observation.
(§2) First, cardiotoxins were isolated from a suitable amount of the venom of Naja atra with reference to the methods descried in SC Sue et al., (2001), Biochemistry, 40, 12782-12794. […] Next, the cardiotoxins and the high molecular weight proteins were mixed, so as to obtain a snake venom protein mixture containing 0.5 mg/mL of the cardiotoxins and 0.025 mg/mL of the high molecular weight proteins.
First, the ICR mice were randomly divided into three groups, including a pathological control group and two experimental groups (i.e., experimental groups 1 and 2) (n=7 mice in each group). Next, a respective one of the quercetin and isorhamnetin was mixed with a suitable amount of the snake venom protein mixture in a volume ratio of 1:20, followed by incubation at 37° C. for […], thereby forming a respective mixture solution. Afterward, the respective ICR mouse of the experimental groups 1 and 2 was intradermally injected with a suitable amount of the mixture solution as shown in Table 4 below. In addition, the respective ICR mouse in the pathological control group was intradermally injected with the snake venom protein mixture.
At the 24th hour after injection with the treating agent, cutaneous ulcers occurring in the ICR mice of each group were photographed and the area thereof was analyzed using ImageJ software.

[3] = test system: snake venom protein mixture (cardiotoxins and high molecular weight proteins from the venom of Naja atra); test: Cutaneous ulceration caused by snake venom proteins in ICR mice, topical administration; conditions: via topical administration
Source text: as §1, §2
For further evaluating whether or not a similar result, as that of the experimental group 2 in Section A of this example, could be obtained when the isorhamnetin was applied via topical administration immediately after a subject suffered from a venomous snake bite, the following experiments were conducted.
First, 3.1 mg of the isorhamnetin was mixed with 1 mL of petroleum jelly in a melted state at 45° C., thereby obtaining an isorhamnetin ointment. […]

venom of Naja nivea = test: Efficacy of isorhamnetin in alleviating toxicity from neurotoxic venom in ICR mice (isorhamnetin injected 30 minutes after venom); conditions: 48th hour after injection; isorhamnetin 50 nmole per mouse 30 minutes after venom 2.5 × LD50
Description: To closely simulate conditions of an emergency treatment in which the subject was a victim of a venomous snake bite, in this application, the ICR mice were injected with the venom of Naja nivea and the isorhamnetin separately (with a time interval therebetween) instead of simultaneously (i.e., mixed in advance for injection).
First, the ICR mice were randomly divided into two groups, including a pathological control group (i.e., pathological control group 7) and an experimental group (i.e., experimental group 7) (n=7 mice in each group). Next, the respective ICR mouse in each group was intradermally injected with a suitable amount of the venom of Naja nivea (dose: 2.5×LD50 per mouse). After 30 minutes, the respective ICR mouse in the experimental group was intradermally injected again with a suitable amount of the isorhamnetin (dose: 50 nmole per mouse).
Subsequently, the survival number of the ICR mice in each group was observed and recorded at every hour until 48 hours after injection with the treating agent. The viability percentage (%) of the ICR mice in each group was calculated using the Equation (1).

| SMILES | effect against death caused by a hemotoxic venom (in words) [1] | area of cutaneous ulcers compared to pathological control group (in words) [2] | median effective dose (ED50) for reducing an area of a cutaneous ulcer [2] [µM] | median effective dose (ED50) for reducing an area of a cutaneous ulcer [3] [µM] | survival (in words) (venom of Naja nivea) |
| --- | --- | --- | --- | --- | --- |
| O=c1cc(-c2ccc(O)cc2)oc2cc(O)cc(O)c12 [apigenin, reference compound] | may accelerate death |  |  |  |  |
| O=c1c(O)c(-c2ccc(O)c(O)c2)oc2cc(O)cc(O)c12 [quercetin] | effective against death caused by a hemotoxic venom | significantly reduced | 1200 |  |  |
| COc1cc(-c2oc3cc(O)cc(O)c3c(=O)c2O)ccc1O [isorhamnetin] | effective against death caused by a hemotoxic venom | significantly reduced; also recorded: highest degree of reduction | 200 | 600 | could even survive until the 48th hour |
